Consider one compound from patent US7666845B2, “Compounds having inhibitory activity against sodium-dependent glucose transporter” (Janssen Pharmaceutica N.V., priority 2006, dated 2010).

For orientation: IC50 means the concentration needed to halve the response being measured.

Structures are written as SMILES.

This assay addresses T1, human SGLT2 (Homo sapiens, UniProt P31639).
T1 construct: expressed in transfected cells; host or cells: CHOK1 (Chinese hamster ovary) cells under Geneticin selection
T1 sequence (P31639 1-672): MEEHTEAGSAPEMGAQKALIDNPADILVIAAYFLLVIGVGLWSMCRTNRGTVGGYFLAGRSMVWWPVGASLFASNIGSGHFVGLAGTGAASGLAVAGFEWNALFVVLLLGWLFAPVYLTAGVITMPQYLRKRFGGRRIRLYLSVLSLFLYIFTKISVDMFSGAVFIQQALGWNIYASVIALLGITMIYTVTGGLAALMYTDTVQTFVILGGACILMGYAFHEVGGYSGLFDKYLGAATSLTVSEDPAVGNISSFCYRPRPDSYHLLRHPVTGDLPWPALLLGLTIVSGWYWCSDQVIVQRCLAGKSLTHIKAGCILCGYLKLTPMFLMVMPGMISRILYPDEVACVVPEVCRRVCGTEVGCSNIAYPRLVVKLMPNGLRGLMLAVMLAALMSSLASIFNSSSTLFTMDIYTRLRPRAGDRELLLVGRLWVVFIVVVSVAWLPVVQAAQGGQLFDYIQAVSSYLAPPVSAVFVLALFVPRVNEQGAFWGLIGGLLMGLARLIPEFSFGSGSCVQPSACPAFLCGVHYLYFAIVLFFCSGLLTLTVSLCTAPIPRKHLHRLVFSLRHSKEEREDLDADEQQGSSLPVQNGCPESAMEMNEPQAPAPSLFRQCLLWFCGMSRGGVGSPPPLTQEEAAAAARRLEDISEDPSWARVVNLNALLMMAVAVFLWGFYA
Put plainly: 14C-AMG uptake in CHOK1 cells expressing human SGLT2. Format: cell-based. Particulars: 14C-AMG 0.5 mM, 2 hours at 37° C., read-out: Human SGLT2 inhibition IC50. Here is the method:
CHOK1 cells expressing human SGLT2 were seeded in 96-well white walled plates at a density of 50,000 cells/well in F-12 nutrient mixture (Ham's F-12) containing 10% fetal bovine serum, 400 μg/ml Geneticin, 50 units/ml sodium penicillin G (Gibco-BRL) and 50 μg/ml streptomycin sulfate. After 2 days of culture at 37° C. in a humidified atmosphere containing 5% CO2, cells were washed once with the assay buffer (137 mM NaCl, 5 mM KCl, 1 mM CaCl2, 1 mM MgCl2, 50 mM Hepes, and 20 mM Tris, pH 7.4) and incubated with 80 μl of the buffer containing test compounds for 10 min at 37° C. Test compounds were dissolved in DMSO. The final concentration of DMSO was 0.5%. The transport reaction was initiated by addition of 20 μl [^14C]-methyl-α-D-glucopyranoside (^14C-AMG, 0.08 uCi per well) solution (final concentration, 0.5 mM). After incubation for 2 hours at 37° C., the uptake was stopped by aspiration of the incubation mixture, the cells were washed three times with ice-cold PBS. Then, cells were solubilized with 0.3 N NaOH and scintalin was added for determination of radioactivity by a liquid scintillation counter. Nonspecific AMG uptake was defined as that which occurred in the presence of 100 μM of phlorizin, a specific inhibitor of sodium-dependent glucose cotransporter. Specific uptake was normalized for the protein concentrations measured by the method of Bradford. […]

Turning to `Cc1ccc(C2OC(C(=O)O)C(O)C(O)C2O)cc1Cc1ccc(-c2ccc(F)cc2)s1` (stereo not shown) [Compound 1, 6-{3-[5-(4-Fluoro-phenyl)-thiophen-2-ylmethyl]-4-methyl-phenyl}-3,4,5-trihydroxy-tetrahydro-pyran-2-carboxylic acid], the IC50 was determined as 1100 nM.
